Measured values reported in PubChem BioAssay (NCI).
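Grown in 96-well plates, cells were treated for 48 hours with each compound at five concentrations. Insufficient inhibition: endpoint recorded as highest concentration tested. TGI is the concentration that stops growth completely.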

Experiments:
Experiment in all cases: NCI anticancer screen, dose series, 48 h
CAKI-1 renal = test system: CAKI-1 renal
HOP-62 NSCLC = test system: HOP-62 NSCLC
HL-60(TB) leukemia = test system: HL-60(TB) leukemia
SW-620 colon = test system: SW-620 colon
OVCAR-5 ovarian = test system: OVCAR-5 ovarian
SK-OV-3 ovarian = test system: SK-OV-3 ovarian
PC-3 prostate = test system: PC-3 prostate
SN12C renal = test system: SN12C renal
OVCAR-4 ovarian = test system: OVCAR-4 ovarian
HT29 colon = test system: HT29 colon
NCI/ADR-RES ovarian = test system: NCI/ADR-RES ovarian
IGROV1 ovarian = test system: IGROV1 ovarian
HCT-15 colon = test system: HCT-15 colon
BT-549 breast = test system: BT-549 breast
T-47D breast = test system: T-47D breast
EKVX NSCLC = test system: EKVX NSCLC
SK-MEL-28 melanoma = test system: SK-MEL-28 melanoma
NCI-H23 lung = test system: NCI-H23 lung
SNB-19 CNS = test system: SNB-19 CNS
NCI-H522 lung = test system: NCI-H522 lung
OVCAR-3 ovarian = test system: OVCAR-3 ovarian
NCI-H460 lung = test system: NCI-H460 lung
LOX IMVI melanoma = test system: LOX IMVI melanoma
UO-31 renal = test system: UO-31 renal
ACHN renal = test system: ACHN renal
U251 CNS = test system: U251 CNS
SR leukemia = test system: SR leukemia
SK-MEL-5 melanoma = test system: SK-MEL-5 melanoma
NCI-H226 lung = test system: NCI-H226 lung
SK-MEL-2 melanoma = test system: SK-MEL-2 melanoma
HOP-92 NSCLC = test system: HOP-92 NSCLC
CCRF-CEM leukemia = test system: CCRF-CEM leukemia
SNB-75 CNS = test system: SNB-75 CNS
OVCAR-8 ovarian = test system: OVCAR-8 ovarian
MALME-3M melanoma = test system: MALME-3M melanoma
COLO 205 colon = test system: COLO 205 colon
HCT-116 colon = test system: HCT-116 colon
UACC-62 melanoma = test system: UACC-62 melanoma
A549 NSCLC = test system: A549 NSCLC
KM12 colon = test system: KM12 colon
MOLT-4 leukemia = test system: MOLT-4 leukemia
UACC-257 melanoma = test system: UACC-257 melanoma
HS 578T breast = test system: HS 578T breast
786-0 renal = test system: 786-0 renal
SF-268 CNS = test system: SF-268 CNS
TK-10 renal = test system: TK-10 renal
RPMI-8226 leukemia = test system: RPMI-8226 leukemia
K-562 leukemia = test system: K-562 leukemia
M14 melanoma = test system: M14 melanoma
MDA-MB-435 = test system: MDA-MB-435
MCF7 breast = test system: MCF7 breast
DU-145 prostate = test system: DU-145 prostate
SF-295 CNS = test system: SF-295 CNS

Measured: TGI

CSCCC(NC(c1ccccc1)c1ccccc1)[P+](=O)O (stereo not drawn)
> 100 µM: all assays above
